The text below walks through data of PubChem BioAssay (NCI).

Holding throughout (experiment): NCI anticancer screen, dose series, 48 h
Test [1] concerns HCT-116 colon.
The test system of test [2] is HOP-92 NSCLC.
The test system of test [3] is KM12 colon.
Test [4] deals with PC-3 prostate.
For test [5], the system named is SN12C renal.
Test [6] has as its system SR leukemia.
Test [7] relates to TK-10 renal.
The test system of test [8] is U251 CNS.
In test [9] the test system is UACC-62 melanoma.
The subject of test [10] is SK-MEL-28 melanoma.

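How tested: cells in 96-well plates exposed to compound for 48 hours at five concentrations. GI50 = concentration required for 50% inhibition of growth. TGI: concentration producing complete growth inhibition.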 Bounds are passed on as bounds.

For `O=C(Cc1cc(O)ccc1O)NO`, the GI50 in test [1] was 18 µM; in test [2] it was 21.3 µM; in [3] it was more than 100 µM; in [4], more than 100 µM; in test [5], 18.2 µM; in test [6] it was 20.5 µM. For the same compound, the GI50 in test [7] was 57.6 µM; in test [8], 32.7 µM; in test [9], 24.7 µM. Further, the TGI was 32.4 µM in test [1]; 59.6 µM in test [2]; more than 100 µM in test [3]; more than 100 µM in test [4]; 33.8 µM in test [5]; 52.6 µM in test [6]. The TGI in [7] is more than 100 µM; in test [8], more than 100 µM; in [9] it was 63.3 µM.
Turning to `O=C1NC(c2ccc3ccccc3c2)Nc2ccccc21` (centres undefined), the TGI in test [1], in test [2], in [3], in test [4], in [10] and in [6] was more than 100 µM in each case. The TGI in [7], in test [8] and in test [9] was more than 100 µM each time.
Consider `COc1cc(-c2oc3c(OC)c(O)c(OC)c(O)c3c(=O)c2OC)cc(OC)c1OC`, for which the TGI in [1], in test [3], in [4], in [10], in test [5] and in [6] was more than 100 µM each time. For the same compound, the TGI in test [7], in test [8] and in test [9] was more than 100 µM in each case.
Consider `OC1(C(Sc2ccccc2)Sc2ccccc2)CCCCCC1`, for which the TGI was 72.3 µM in [1]; 56.5 µM in test [2]; more than 100 µM in test [3]; more than 100 µM in test [10]; 38.5 µM in test [5]; 67 µM in test [6]. For the same compound, the TGI was more than 100 µM in test [7], 66.2 µM in [8] and 28.5 µM in [9].
Regarding `N#CC1=C(N)N=C(N2CCOCC2)C(C#N)C12Nc1ccccc1S2` (centres undefined), the GI50 in test [1] was 35.4 µM; in test [2], 41.3 µM; in test [3], 15 µM; in test [4], 20.1 µM; in test [5] it was 27.5 µM; in test [6] it was 9.31 µM. Moreover, the GI50 in [7] was 14 µM; in [8], 27.8 µM; in test [9], 18.8 µM. Besides, the TGI was more than 100 µM in test [1]; more than 100 µM in test [2]; 33.6 µM in test [3]; more than 100 µM in test [4]; 82.9 µM in test [5]; more than 100 µM in test [6]. Besides, the TGI in test [7] was 49.2 µM; in test [8], more than 100 µM; in test [9], 40.9 µM.
As for `CCCCCCCCCN=C(N)c1ccc(N2CCN(c3ccc(C(N)=NCCCCCCCCC)cc3)CC2)cc1`, the GI50 in test [2] was 4.1 µM; in [3] it was 1.7 µM; in [4], 1.74 µM; in [10], 1.6 µM; in [5], 1.52 µM; in test [6], 2.75 µM. Moreover, the GI50 in test [7] was 4.3 µM; in test [8], 0.518 µM; in [9], 2.45 µM. The TGI in test [2] was more than 50 µM; in test [3], 5.67 µM; in test [4], 5.87 µM; in test [10], 4.27 µM; in [5], 7.85 µM; in [6], more than 50 µM. Also, the TGI was 14.7 µM in test [7], 1.41 µM in test [8] and 22.1 µM in test [9].
`COC(=O)C1C(C(=O)O)C2(c3ccccc3)C(=O)C1(c1ccccc1)C(c1ccc(OC)cc1)=C2c1ccc(OC)cc1` (centres undefined): the GI50 in test [1] is 17.3 µM; in test [2] it was 4.87 µM; in test [3], 27 µM; in test [4] it was 13 µM; in [5] it was 20.5 µM; in test [6], 27.2 µM. In addition, the GI50 was 31.8 µM in test [7], 36.6 µM in [8] and 18.8 µM in test [9]. In addition, the TGI in test [1] was 33.6 µM; in [2] it was 28.4 µM; in test [3], 74.6 µM; in test [4], 31.3 µM; in [5], 49 µM; in [6] it was 63 µM. The TGI in test [7] is more than 100 µM; in test [8], more than 100 µM; in test [9], 35.2 µM.
`O=C(O)c1ccc(CSc2nc3ccccc3[nH]2)cc1`: the GI50 in test [1], in test [2], in test [3], in test [4], in [10] and in test [5] was more than 100 µM in each case. Also, the GI50 in [6], in [7] and in test [8] was more than 100 µM throughout. The TGI in test [1], in [2], in test [3], in test [4], in test [10] and in test [5] was more than 100 µM in each case. The TGI in test [6], in test [7] and in test [8] was more than 100 µM in each case.
For the compound `COc1cccc(C(=O)NNc2nc(Cl)nc(N3CCN(C(c4ccccc4)c4ccccc4)CC3)n2)c1`, the GI50 was 1.77 µM in test [1]; 1.57 µM in test [2]; more than 100 µM in test [3]; 2.21 µM in test [10]; 1.8 µM in [5]; 0.852 µM in test [6]. The GI50 in test [7] was 51 µM; in test [8], 1.78 µM; in test [9], 2.3 µM. The TGI in test [1] is 3.73 µM; in test [2], 3.82 µM; in test [3], more than 100 µM; in test [10], 5.38 µM; in test [5] it was 3.47 µM; in test [6] it was 4.26 µM. For the same compound, the TGI was more than 100 µM in test [7], 3.51 µM in [8] and 5.85 µM in [9].
In the case of `COc1ccc2nc3cc([N+](=O)[O-])ccc3c(NCCO)c2c1`, the GI50 was 2.2 µM in test [1]; 1.86 µM in test [2]; 2.17 µM in [3]; 5.41 µM in test [10]; 2.51 µM in test [5]; 3.13 µM in test [6]. Further, the GI50 in [8] is 1.44 µM; in [9], 1.93 µM. The TGI amounted to 10.5 µM in [1]; 7.02 µM in [2]; 6.8 µM in test [3]; 30 µM in test [4]; 30.8 µM in [5]; 5.23 µM in [9].
